In patent US20250195427A1, “ANTI-INFLAMMATORY DRUG-ELUTING COMPOSITIONS AND METHODS” (THE REGENTS OF THE UNIVERSITY OF CALIFORNIA, priority 2022, published 2025):
≈ marks a conversion by molar mass, not a printed value.

Columns and labels:
[1] = Drug loading of mPEG-b-p(HPMAm-Lacn) micelles by HPLC (loaded concentration, encapsulation efficiency, loading capacity); format: physicochemical; details: for final concentration of drug loaded inside MCs: polymer 10 mg/mL, 1 mL MC solution, HPLC; for difference in encapsulation efficiency (EE) % with various polymer/drug ratios: polymer/drug ratios 10:0.25 to 10:2
Protocol: Drug loaded MCs were formed by self-assembly via a solvent evaporation method. Briefly, 10 mg of copolymers […] dissolved in 1 mL of acetone. Various amounts of drugs (0.25, 0.5, 1 and 2 mg) were then added to the copolymer solution and vortexed until fully mixed. […] The next day, the MC solution was centrifuged at 4,000 rpm at 22° C. for 10 min to remove unencapsulated drugs. LE, PA, and DEX were three drugs of interest. 30 mg/mL of drug stock solutions were prepared in DMSO. Unloaded MCs were prepared with the same procedure without the addition of drugs. The amount of loaded drugs (LE, PA and DEX) in the polymeric MCs was determined by using High Performance Liquid Chromatography (HPLC). Taking LE as an example, after centrifugation of the MC solution, the unencapsulated LE pellet was redissolved in 1 mL of ACN. […] LE dissolved in ACN (concentration from 0.1 mg/ml to 1 mg/ml) was used for calibration. The encapsulation efficiency (EE) and loading capacity (LC) were calculated as follows: […]

[2] = cited from earlier work

SMILES | final concentration of drug loaded inside MCs ([1]; initially applied drug 0.25 mg) [µg/mL] | final concentration of drug loaded inside MCs ([1]; initially applied drug 2 mg) [µg/mL] | difference in encapsulation efficiency (EE) % with various polymer/drug ratios [1] | Log P [2] | solubility in water [2] [µg/mL]
CCOC(=O)O[C@]1(C(=O)OCCl)CC[C@H]2[C@@H]3CCC4=CC(=O)C=C[C@]4(C)[C@H]3[C@@H](O)C[C@@]21C [LE, Loteprednol etabonate] | 55.7 ± 10.0 | 589.2 ± 75.5 | No significant difference | 3.08 | 0.5 (≈ 1.07 µM)
CC(=O)OCC(=O)[C@@]1(O)CC[C@H]2[C@@H]3CCC4=CC(=O)C=C[C@]4(C)[C@H]3[C@@H](O)C[C@@]21C [PA, Prednisolone acetate] | 171.7 ± 4.2 | 1154.0 ± 108.6 | No significant difference | – | –
